Source: the NIST ThermoML archive (doi:10.1021/je800579j)

Experiment: xn = mol fraction of the nth substance listed
Settings: Liquid, Pycnometric method

C1COCCO1 [1,4-dioxane] + c1ccccc1
mass density [kg/m3]
Settings | 288.15 K | 293.15 K | 298.15 K | 303.15 K | 308.15 K | 313.15 K | 318.15 K
x1 = 0.0713 | 895.16 | 889.77 | 884.38 | 878.99 | 873.6 | 868.22 | 862.84
x1 = 0.1403 | 905.71 | 900.28 | 894.85 | 889.42 | 883.99 | 878.58 | 873.17
x1 = 0.2123 | 916.74 | 911.28 | 905.82 | 900.36 | 894.9 | 889.45 | 884
x1 = 0.2809 | 927.28 | 921.79 | 916.3 | 910.81 | 905.32 | 899.84 | 894.36
x1 = 0.3528 | 938.34 | 932.82 | 927.31 | 921.8 | 916.28 | 910.77 | 905.26
x1 = 0.4195 | 948.63 | 943.09 | 937.55 | 932.01 | 926.47 | 920.94 | 915.41
x1 = 0.5037 | 961.65 | 956.08 | 950.51 | 944.94 | 939.38 | 933.82 | 928.26
x1 = 0.58 | 973.48 | 967.89 | 962.3 | 956.71 | 951.12 | 945.54 | 939.96
x1 = 0.6504 | 984.43 | 978.82 | 973.21 | 967.6 | 962 | 956.4 | 950.8
x1 = 0.7197 | 995.23 | 989.61 | 983.99 | 978.37 | 972.75 | 967.13 | 961.52
x1 = 0.7822 | 1005 | 999.37 | 993.74 | 988.11 | 982.48 | 976.85 | 971.23
x1 = 0.8561 | 1016.58 | 1010.94 | 1005.3 | 999.66 | 994.02 | 988.39 | 982.76
x1 = 0.9287 | 1027.99 | 1022.35 | 1016.71 | 1011.07 | 1005.43 | 999.79 | 994.15
x1 = 1 | 1039.23 | 1033.59 | 1027.95 | 1022.32 | 1016.68 | 1011.05 | 1005.42

C1COCCO1 [1,4-dioxane] + Cc1ccccc1
mass density [kg/m3]
Settings | 288.15 K | 293.15 K | 298.15 K | 303.15 K | 308.15 K | 313.15 K | 318.15 K
x1 = 0.0688 | 881.09 | 876.32 | 871.54 | 866.76 | 861.99 | 857.21 | 852.43
x1 = 0.1373 | 890.67 | 885.84 | 881 | 876.16 | 871.33 | 866.49 | 861.65
x1 = 0.2112 | 901.34 | 896.45 | 891.55 | 886.65 | 881.75 | 876.85 | 871.95
x1 = 0.2858 | 912.47 | 907.51 | 902.55 | 897.58 | 892.62 | 887.66 | 882.7
x1 = 0.3552 | 923.15 | 918.13 | 913.11 | 908.08 | 903.06 | 898.04 | 893.02
x1 = 0.4361 | 936.02 | 930.92 | 925.82 | 920.72 | 915.63 | 910.54 | 905.45
x1 = 0.5064 | 947.57 | 942.41 | 937.25 | 932.09 | 926.93 | 921.77 | 916.61
x1 = 0.5819 | 960.38 | 955.15 | 949.92 | 944.69 | 939.46 | 934.23 | 929
x1 = 0.6506 | 972.39 | 967.1 | 961.8 | 956.5 | 951.21 | 945.92 | 940.63
x1 = 0.7212 | 985.11 | 979.74 | 974.37 | 969.01 | 963.65 | 958.29 | 952.93
x1 = 0.7903 | 997.93 | 992.49 | 987.06 | 981.63 | 976.2 | 970.77 | 965.34
x1 = 0.864 | 1012.02 | 1006.51 | 1001 | 995.5 | 989.99 | 984.49 | 978.99
x1 = 0.9336 | 1025.74 | 1020.16 | 1014.58 | 1009.01 | 1003.44 | 997.87 | 992.3
x1 = 1 | 1039.23 | 1033.59 | 1027.95 | 1022.32 | 1016.68 | 1011.05 | 1005.42
